Laboratory results as given in US8008312B2, “CXCR4 antagonists for the treatment of HIV infection” (Emory University, priority 2005, dated 2011).
Where two headings read alike, the source gives them in different places.

Assays:
CXCR4 [1] = target: T1, CXCR4 (Homo sapiens, UniProt P61073); experiment: Competition screening using the native CXCR4 ligand SDF-1; assay type: binding; conditions: competition with SDF-1
Half-life in mice = conditions: mouse, in vivo, read-out: t1/2 (min) in mice
Vrs-1 = experiment: Phenoscreen viral entry inhibition assay, Vrs-1; assay type: cell-based, HIV
Procedure: (§1) A selected set of compounds were tested for their ability to inhibit the cellular entry of T-tropic HIV. The assay for this inhibition has been carried out on a contractural basis at Monogram Biosciences, Inc. using their well established Phenoscreen™ assay. Briefly, HIV strains of interest are tagged with a luciferase indicator gene to create an appropriate test vector. The test vector is amplified through transfection and the resulting virus is incubated in the presence of target host cells where intracellular florescence activity then becomes a measure of infection. Amplified virus is exposed to target host cells in the presence of a range of test drug concentrations to determine IC50 measurements of entry inhibition. A modification of this test has been further reapplied as a novel drug assay that has been used in partnership with a number of pharmaceutical companies to test the effectiveness of novel entry inhibitors that target specific chemokines. It can used to detect activity against T-tropic, M-tropic, and dual-tropic viruses and Monogram Biosciences has a large bank of over 10,000 different virus strains to ultimately asses the range of applicability of our CXCR4 antagonists. Certain compounds have been tested to establish efficacy in a number of viral strains.

Vrs-2 = experiment: Phenoscreen viral entry inhibition assay, Vrs-2; assay type: cell-based, HIV; conditions: Human immunodeficiency virus 1, read-out: Viral Entry Inhibition Vrs-2
Procedure: as §1

SHIV = experiment: Phenoscreen viral entry inhibition assay, SHIV; assay type: cell-based
Procedure: as §1

NL4-3 = experiment: Phenoscreen viral entry inhibition assay, NL4-3; assay type: cell-based, HIV
Procedure: as §1

Dual = experiment: Phenoscreen viral entry inhibition assay, Dual; assay type: cell-based, HIV; conditions: Human immunodeficiency virus 1, read-out: Viral Entry Inhibition Dual
Procedure: as §1

HXB2 = experiment: Phenoscreen viral entry inhibition assay, HXB2; assay type: cell-based, HIV
Procedure: as §1

Vrs-3 = experiment: Phenoscreen viral entry inhibition assay, Vrs-3; assay type: cell-based, HIV
Procedure: as §1

CXCR4 [2] = target: T1, CXCR4; experiment: Competition assay using biotin-labeled TN14003 on tumor cells; assay type: binding; conditions: FIG. 5, cells pre-incubated with various concentrations; read-out: IC50 (biotin-labeled TN14003 detection of CXCR4 after pre-incubation)
Procedure: Biotin-labeled TN14003 was used to detect CXCR4 protein from the cells pre-incubated with various concentrations of WZZL811S.
Using biotin-labeled TN14003 along with streptavidin-conjugated rhodamine allowed a determination of the binding efficiency of these chemicals to the SDF-1 binding site of CXCR4 on tumor cells and compared it to AMD3100-SDF-1 interactions (FIG. 4). […] Cells were pre-incubated with different concentrations of AMD3100. […] Therefore, one of these compounds, WZZL811S, was selected to study its therapeutic potential based on potency and low toxicity to cells (FIG. 6).

MDA-MB-231 cells = experiment: Cell viability of MDA-MB-231 cells; assay type: cell-based; conditions: even at 100 μM (the highest concentration tested)
MT-4 cells = conditions: cited from earlier work
CXCR4 [3] = target: T1, CXCR4; experiment: SDF-1 stimulated phosphorylation of Akt in MDA-MB-231 cells; assay type: cell-based; conditions: 100 ng/ml SDF-1, 30 minutes; FIG. 2
Procedure: FIG. 2 is an image of a western blot showing phosphorylation of Akt. Incubating MDA-MB-231 cells with 100 ng/ml of SDF-1 for 30 min stimulated phosphorylation of Akt. This activation was blocked with TN14003 or AMD3100 in a dose-dependent manner.
CXCR4/SDF-1 interaction activates PI3K/Akt and Ras/Raf/MEK/Erk pathways in a Gas protein (PTX-sensitive)-dependent manner. Experiments were conducted to determine the effect of blocking CXCR4/SDF-1 interaction by either TN14003 or AMD3100 at different concentrations (0, 0.01, 0.1, 1, 10, 100, 1000 nM) on phosphorylations of Akt and Erk1/2 signaling. Incubating cells with 100 ng/ml of SDF-1 for 30 minutes activated Akt. […] However, the increase in Erk1/2 phosphorylation by SDF-1 was not significant as the increase in Akt phosphorylation.

CXCR4 [4] = target: T1, CXCR4; experiment: SDF-1 stimulated Erk1/2 phosphorylation; assay type: cell-based; conditions: SDF-1 stimulation; data not shown
Text: CXCR4/SDF-1 interaction activates PI3K/Akt and Ras/Raf/MEK/Erk pathways in a Gas protein (PTX-sensitive)-dependent manner.

CXCR4 [5] = target: T1, CXCR4; experiment: CXCR4 protein levels after treating cells; assay type: cell-based
[6] = Human immunodeficiency virus 1, read-out: Viral Entry Inhibition Vrs-1
[7] = Human immunodeficiency virus 1, NL43, read-out: Viral Entry Inhibition NL4-3
[8] = Human immunodeficiency virus 1, HXB2, read-out: Viral Entry Inhibition HXB2
[9] = Human immunodeficiency virus 1, read-out: Viral Entry Inhibition Vrs-3

T1 sequence (P61073 whole entry): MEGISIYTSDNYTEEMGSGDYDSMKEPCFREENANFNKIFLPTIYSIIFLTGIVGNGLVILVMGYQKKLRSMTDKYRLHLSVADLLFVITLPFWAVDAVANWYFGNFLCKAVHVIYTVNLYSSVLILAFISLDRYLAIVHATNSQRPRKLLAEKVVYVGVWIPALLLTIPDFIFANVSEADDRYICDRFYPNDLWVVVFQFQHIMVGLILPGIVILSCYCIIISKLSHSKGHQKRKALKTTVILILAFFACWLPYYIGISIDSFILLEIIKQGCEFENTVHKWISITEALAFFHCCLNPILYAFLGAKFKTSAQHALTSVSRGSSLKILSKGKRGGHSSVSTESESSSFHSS

| Compound | IC50 (CXCR4 [1]) [nM] | IC50 (Vrs-1; [6]) [µM] | IC50 (Vrs-2) [µM] | IC50 (SHIV) [µM] | IC50 (NL4-3; [7]) [µM] | IC50 (Dual) [µM] | IC50 (HXB2; [8]) [µM] | IC50 (Vrs-3; [9]) [µM] | other results |
| --- | --- | --- | --- | --- | --- | --- | --- | --- | --- |
| c1cnc(NCc2ccc(CNc3ncccn3)cc2)nc1 [drawing 205] | < 10 |  |  |  |  |  |  |  | half-life (Half-life in mice): 45 min |
| COc1ccnc(NCc2ccc(CNc3nccc(OC)n3)cc2)n1 [WZ-72-S] |  | > 15 | ~12 | 4.44 | ~15 | > 15 | > 15 | > 15 |  |
| c1ccc(NCc2cccc(CNc3ccccc3)c2)cc1 [WZ-814-S] |  | ~11 | ~11 | > 15 | ~11 | > 15 | ~15 | ~11 |  |
| CC(Nc1ccccc1)c1ccc(C(C)Nc2ccccc2)cc1 (stereo not drawn) [WZ-8225] |  | ~11 | ~10 | ~10 | ~10 | > 15 | ~11 | ~10 |  |
| c1ccc(NCc2ccc(CNc3ccccn3)cc2)nc1 [WZZL811S] |  | > 15 | ~12 | > 15 | > 15 | > 15 | > 15 | > 15 | IC50 (CXCR4 [2]): < 0.001 µM; cell viability of MDA-MB-231 cells (MDA-MB-231 cells): did not decrease cell viability |
| COc1cccc(NCc2ccc(CNc3cccc(OC)c3)cc2)c1 [drawing 216] | 1 |  |  |  |  |  |  |  | half-life (Half-life in mice): 14.3 min |
| OCc1ccc(CNc2ncccn2)cc1 [drawing 206] | < 10 |  |  |  |  |  |  |  |  |
| c1ccc(NCc2cccc(CNc3ccccn3)c2)nc1 [WZ-48-S] |  | > 15 | ~11 | ~11 | > 15 | > 15 | > 15 | > 15 |  |
| COc1ccnc(NCc2ccc(CNc3nccc(OC)n3)cc2)n1 [drawing 215] | 10 |  |  |  |  |  |  |  |  |
| c1ccc(NCc2ccc(CNc3ccccn3)cc2)nc1 [drawing 204] | < 10 |  |  |  |  |  |  |  |  |
| c1ccc(NCc2ccc(CNc3ccccc3)cc2)cc1 [drawing 208] | < 10 |  |  |  |  |  |  |  | half-life (Half-life in mice): 11 min |
| c1ccc(CNCc2ccc(CNCc3ccccc3)cc2)cc1 [drawing 210] | < 100 |  |  |  |  |  |  |  |  |
| TN14003 [reference compound] |  |  |  |  |  |  |  |  | IC50 (Vrs-1; Vrs-1 strain, read-out: Viral Entry Inhibition Vrs-1): 0.01 µM; IC50 (SHIV; SHIV): 0.007 µM; concentration leading to 50% toxicity (MT-4 cells): 410 µM; IC50 (NL4-3; NL4-3 strain, read-out: Viral Entry Inhibition NL4-3): 0.005 µM; IC50 (HXB2; HXB2 strain, read-out: Viral Entry Inhibition HXB2): 0.01 µM; IC50 (Vrs-3; Vrs-3 strain, read-out: Viral Entry Inhibition Vrs-3): 0.025 µM; concentration blocking Akt activation (CXCR4 [3]): sub-nano molar concentration; concentration attenuating Erk1/2 phosphorylation (CXCR4 [4]): sub-nano molar concentration; effect on CXCR4 protein levels (CXCR4 [5]): did not affect CXCR4 protein levels |
| c1cnc(NCc2ccc(CNc3ncccn3)cc2)nc1 [WZ-40-MS] |  | > 15 | ~10 | ~12 | > 15 | > 15 | > 15 | > 15 |  |
| COc1cccc(NCc2ccc(CNc3cccc(OC)c3)cc2)c1 [WZ-77] |  | > 15 | ~11 | 8.96 | ~14 | > 15 | > 15 | > 15 |  |
| Fc1ccccc1NCc1ccc(CNc2ccccc2F)cc1 [WZ-51] |  | ~10 | ~10 | 1.42 | ~12 | ~12 | > 15 | ~10 |  |
| Fc1ccccc1NCc1ccc(CNc2ccccc2F)cc1 [drawing 213] | < 10 |  |  |  |  |  |  |  |  |
| c1ccc(NCc2ccc(CNc3ncccn3)cc2)cc1 [drawing 214] |  |  |  |  |  |  |  |  | half-life (Half-life in mice): 14 min |
| c1ccc(NCc2cccc(CNc3ccccc3)c2)cc1 [drawing 209] | < 10 |  |  |  |  |  |  |  | half-life (Half-life in mice): < 5 min |
| CC(Nc1ccccc1)c1ccc(C(C)Nc2ccccc2)cc1 (stereo not drawn) [drawing 211] | < 100 |  |  |  |  |  |  |  | half-life (Half-life in mice): 13.7 min |
| OCc1ccc(CNc2ncccn2)cc1 [WZ-41] |  | > 15 | ~13 | ~15 | > 15 | > 15 | > 15 | > 15 |  |
| c1ccc(CNCc2ccc(CNCc3ccccc3)cc2)cc1 [WZ-8224] |  | 4.78 | 4.31 | 1.7 | 6.37 | 6.25 | 8.08 | 5.72 |  |
| c1ccc(NCc2ccc(CNc3ncccn3)cc2)cc1 [WZ-67] |  | > 15 | ~11 | ~10 | ~11 | > 15 | > 15 | ~12 |  |
| c1ccc(NCc2ccc(CNc3ccccc3)cc2)cc1 [WZ-81810] |  | > 15 | ~10 | ~12 | > 15 | > 15 | > 15 | > 15 |  |
| C1=CC(CN2CCCNCCNCCCNCC2)CC=C1CN1CCCNCCNCCCNCC1 (stereo not drawn) [AMD3100, reference compound] |  | 0.013 | 0.015 | 0.013 | 0.008 | 0.03 | 0.013 | 0.043 | concentration blocking Akt activation (CXCR4 [3]): a few nano molar; concentration attenuating Erk1/2 phosphorylation (CXCR4 [4]): 100 nM; effect on CXCR4 protein levels (CXCR4 [5]): did not affect CXCR4 protein levels |
| Cc1cc(CNc2ccccc2)c(C)cc1CNc1ccccc1 [drawing 212] | > 100 |  |  |  |  |  |  |  |  |
| Cc1cc(CNc2ccccc2)c(C)cc1CNc1ccccc1 [WZ-9103] |  | > 15 | ~15 | 9.5 | ~11 | > 15 | ~13 | ~15 |  |
